SMILES strings stand for the structures.

Chain of IKZF2 (Q9UKS7 whole entry): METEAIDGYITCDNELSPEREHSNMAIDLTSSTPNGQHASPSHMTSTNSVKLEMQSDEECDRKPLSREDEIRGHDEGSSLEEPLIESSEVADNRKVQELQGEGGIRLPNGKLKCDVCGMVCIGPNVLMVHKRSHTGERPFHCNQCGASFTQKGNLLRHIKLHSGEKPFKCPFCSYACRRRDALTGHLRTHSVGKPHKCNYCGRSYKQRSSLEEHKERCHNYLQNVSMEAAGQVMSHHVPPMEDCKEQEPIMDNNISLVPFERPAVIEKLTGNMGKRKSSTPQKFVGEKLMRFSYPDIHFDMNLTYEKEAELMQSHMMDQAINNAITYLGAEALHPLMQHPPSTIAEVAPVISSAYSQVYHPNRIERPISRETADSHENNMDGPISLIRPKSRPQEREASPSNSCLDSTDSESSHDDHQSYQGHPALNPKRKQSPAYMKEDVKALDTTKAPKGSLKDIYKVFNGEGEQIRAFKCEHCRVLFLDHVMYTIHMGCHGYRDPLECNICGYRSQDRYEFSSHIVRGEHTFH
Chain of IKZF2 (Q96SW2 whole entry): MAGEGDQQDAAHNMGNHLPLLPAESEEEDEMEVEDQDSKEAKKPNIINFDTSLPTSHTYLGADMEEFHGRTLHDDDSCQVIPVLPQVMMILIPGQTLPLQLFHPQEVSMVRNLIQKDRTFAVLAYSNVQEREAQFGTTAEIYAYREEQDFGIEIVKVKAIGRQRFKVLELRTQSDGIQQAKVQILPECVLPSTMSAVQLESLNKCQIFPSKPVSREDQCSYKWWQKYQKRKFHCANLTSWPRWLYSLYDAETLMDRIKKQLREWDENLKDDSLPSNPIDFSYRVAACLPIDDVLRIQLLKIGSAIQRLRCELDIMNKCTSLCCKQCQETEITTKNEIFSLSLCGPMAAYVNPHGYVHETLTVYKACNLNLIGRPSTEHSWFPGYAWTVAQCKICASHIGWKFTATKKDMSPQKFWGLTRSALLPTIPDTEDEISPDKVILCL
Chain of IKZF2 (Q16531 whole entry partner): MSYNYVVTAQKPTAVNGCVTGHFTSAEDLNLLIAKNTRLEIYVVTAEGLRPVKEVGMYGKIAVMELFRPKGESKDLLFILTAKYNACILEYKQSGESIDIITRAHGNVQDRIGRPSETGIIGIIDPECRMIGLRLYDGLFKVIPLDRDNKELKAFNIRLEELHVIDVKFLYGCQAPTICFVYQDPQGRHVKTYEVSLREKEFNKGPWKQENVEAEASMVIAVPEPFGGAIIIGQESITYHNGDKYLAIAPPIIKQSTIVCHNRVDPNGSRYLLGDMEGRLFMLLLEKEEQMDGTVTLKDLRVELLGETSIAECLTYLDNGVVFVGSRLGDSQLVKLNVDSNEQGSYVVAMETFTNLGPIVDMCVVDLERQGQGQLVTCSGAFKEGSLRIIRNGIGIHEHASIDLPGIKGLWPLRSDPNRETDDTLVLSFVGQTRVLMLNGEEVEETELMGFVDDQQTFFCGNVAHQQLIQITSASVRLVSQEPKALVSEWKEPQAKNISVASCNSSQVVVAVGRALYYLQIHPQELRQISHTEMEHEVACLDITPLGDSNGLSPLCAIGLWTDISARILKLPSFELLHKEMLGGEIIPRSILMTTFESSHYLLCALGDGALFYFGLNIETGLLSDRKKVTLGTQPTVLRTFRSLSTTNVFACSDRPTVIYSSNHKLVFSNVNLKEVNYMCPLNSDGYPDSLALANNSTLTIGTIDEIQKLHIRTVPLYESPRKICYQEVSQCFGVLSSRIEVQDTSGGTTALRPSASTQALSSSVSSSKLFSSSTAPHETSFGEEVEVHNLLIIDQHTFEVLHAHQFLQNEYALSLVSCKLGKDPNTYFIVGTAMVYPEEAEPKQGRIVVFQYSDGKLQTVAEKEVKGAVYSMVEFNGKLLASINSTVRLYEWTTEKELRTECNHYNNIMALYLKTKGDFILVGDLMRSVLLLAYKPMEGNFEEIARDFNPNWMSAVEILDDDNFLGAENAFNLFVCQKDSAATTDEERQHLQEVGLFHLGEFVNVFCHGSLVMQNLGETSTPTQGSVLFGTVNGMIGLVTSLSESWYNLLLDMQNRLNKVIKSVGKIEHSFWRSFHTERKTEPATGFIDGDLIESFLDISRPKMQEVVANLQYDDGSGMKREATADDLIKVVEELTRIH
Chain of IKZF1 (Q13422 whole entry, the tested form may be a part): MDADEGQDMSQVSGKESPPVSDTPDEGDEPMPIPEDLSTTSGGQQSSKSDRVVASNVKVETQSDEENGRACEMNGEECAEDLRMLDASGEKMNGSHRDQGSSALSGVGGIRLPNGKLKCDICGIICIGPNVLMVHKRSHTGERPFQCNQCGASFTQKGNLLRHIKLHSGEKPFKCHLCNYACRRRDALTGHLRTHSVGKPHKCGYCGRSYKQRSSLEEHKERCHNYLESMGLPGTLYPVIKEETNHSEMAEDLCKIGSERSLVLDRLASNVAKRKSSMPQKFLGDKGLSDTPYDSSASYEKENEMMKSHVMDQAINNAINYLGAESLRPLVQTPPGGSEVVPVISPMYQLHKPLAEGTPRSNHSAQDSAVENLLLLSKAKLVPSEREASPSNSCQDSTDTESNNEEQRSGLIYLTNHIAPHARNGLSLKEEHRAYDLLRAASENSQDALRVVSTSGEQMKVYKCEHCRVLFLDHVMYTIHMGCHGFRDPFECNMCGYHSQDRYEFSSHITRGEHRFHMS
Chain of IKZF1 (Q96SW2 whole entry, the tested form may be a part): as the sequence (Q96SW2 whole entry) above
Chain of IKZF1 (Q16531 whole entry partner, the tested form may be a part): as the sequence (Q16531 whole entry partner) above

The first assay has as its target IKZF2 (Homo sapiens, UniProt Q96SW2+Q9UKS7). Kind of assay: Prolabel quantification of IKZF2 protein levels in 293GT cells. The format is cell-based.
Conditions: not given
The method, then: (§1) The Prolabel system from DiscoverX was used to develop high-throughput and quantitative assays to measure changes in IKZF1, IKZF2 and GSPT1 protein levels in response to compounds. The prolabel tag was derived from the alpha fragment of beta galactosidase and has the following protein sequence: mssnslavvlqadwenpgvtqlnrlaahppfaswrnseeartdipsqqlislnge. The complementary fragment of beta-galactosidase (from DiscoverX), is added to the prolabel tag to form an active beta galactosidase enzyme whose activity can be precisely measured. In this way, the levels of a fusion protein with the prolabel tag can be quantified in cell lysates.
Lentiviral vectors, based on the Invitrogen pLenti6.2/V5 DEST backbone, were constructed that placed the prolabel tag upstream of IKZF1, IKZF2 or GSPT1 and expressed the fusion protein from a CMV promoter.
To ensure moderate and consistent expression of the prolabel fusion proteins across all cells in the population, stable cell lines were constructed from cells expressing a single copy of the construct. Lentivirus packaged with the constructs was made using the Virapower kit from Invitrogen.
The levels of prolabel tagged fusion proteins in compound treated cell lines were measured as follows:
Day 1, Cells were diluted to 1.0×10^6 cells/ml in normal growth medium. 17.5 μL of cells were plated in each well of a solid white 384 well plate. Plates were incubated overnight in a 37° C. tissue culture incubator.
Day 2, Serial dilutions of compounds were made in 384 well plates from 10 mM stocks. 15 μL of DMSO was added to each well of a 384 well plate. In the first column, 15 μL of stock compound was added. The solution was mixed and 15 μL was transferred to the next column. This was repeated until 20 two-fold dilutions were prepared. 2.5 μL of diluted compounds were transferred into 60 μL of cell culture medium in another 384 well plate, and mixed well. […] of this mixture was added to the plated cells. The final DMSO concentration was 0.5% and the highest concentration of compound was 50 μM. Plates were incubated overnight (e.g., about 14 h, 18 h, or 24 h) in a 37° C. tissue culture incubator.
Day 3, Plates were removed from the incubator and allowed to equilibrate at r.t. for 30 minutes. Prolabel substrate (DiscoverX PathHunter Prolabel Detection Kit, User manual: 93-0180) was added as described by the manufacturers protocols. Plates were incubated at r.t. for three hours and luminescence was read using an Envision reader (Perkin Elmer) Data was analyzed and visualized using the Spotfire software package.
For `CCn1nc(-c2ccc3c(c2)CN(C2CCC(=O)NC2=O)C3=O)cc1C(F)(F)F` (stereo not shown) [Compound I-7, 3-(5-(1-ethyl-5-(trifluoromethyl)-1H-pyrazol-3-yl)-1-oxoisoindolin-2-yl)piperidine-2,6-dione], the “IKZF2 % protein reduction at 10 μM, 24 h” value was 10%.
The same measure, in the same setting: with `CCN(CC)Cc1ccc(-c2ccc3c(c2)CN(C2CCC(=O)NC2=O)C3=O)nn1` (stereo not shown) [Compound I-43, 3-(5-(6-((diethylamino)methyl)pyridazin-3-yl)-1-oxoisoindolin-2-yl)piperidine-2,6-dione] the figure was 40%.
On the same count and under the same terms, the figure for `CCn1nc(-c2ccc3c(c2)CN(C2CCC(=O)NC2=O)C3=O)cc1OC` (stereo not shown) [Compound I-34, 3-(5-(1-ethyl-5-methoxy-1H-pyrazol-3-yl)-1-oxoisoindolin-2-yl)piperidine-2,6-dione] is 50%; for `O=C1CCC(N2Cc3cc(-c4cccnn4)ccc3C2=O)C(=O)N1` (stereo not shown) [Compound I-42, 3-(1-oxo-5-(pyridazin-3-yl)isoindolin-2-yl)piperidine-2,6-dione] it is 80%.
The same measure, in the same setting: with `CO[C@H]1CC[C@H](Cc2ccc(-c3ccc4c(c3)CN(C3CCC(=O)NC3=O)C4=O)nn2)CC1` (stereo partly shown) [Compound I-25] the figure was 68%.
As to `O=C1CCC(N2Cc3cc(-c4nc5ncccc5[nH]4)ccc3C2=O)C(=O)N1` (stereo not shown) [Compound I-46, 3-(5-(1H-imidazo[4,5-b]pyridin-2-yl)-1-oxoisoindolin-2-yl)piperidine-2,6-dione], the “IKZF2 % protein reduction at 10 μM, 24 h” value stood at 80%.
On the same count and under the same terms, the figure for `CCNc1ccc(-c2ccc3c(c2)CN(C2CCC(=O)NC2=O)C3=O)nn1` (stereo not shown) [Compound I-22, 3-(5-(6-(ethylamino)pyridazin-3-yl)-1-oxoisoindolin-2-yl)piperidine-2,6-dione] is 60%; for `COc1cc(-c2ccc3c(c2)CN(C2CCC(=O)NC2=O)C3=O)nn1Cc1ccccc1` (stereo not shown) [Compound I-40, 3-(5-(1-benzyl-5-methoxy-1H-pyrazol-3-yl)-1-oxoisoindolin-2-yl)piperidine-2,6-dione] it is 80%.
The same measure, in the same setting: with `O=C1CCC(N2Cc3cc(-c4nc5[nH]c(=O)ccc5[nH]4)ccc3C2=O)C(=O)N1` (stereo not shown) [Compound I-6, 3-(1-oxo-5-(5-oxo-4,5-dihydro-1H-imidazo[4,5-b]pyridin-2-yl)isoindolin-2-yl)piperidine-2,6-dione] the figure was 75%; with `COc1cc(Cc2ccccc2)nnc1-c1ccc2c(c1)CN(C1CCC(=O)NC1=O)C2=O` (stereo not shown) [Compound I-28, 3-(5-(6-benzyl-4-methoxypyridazin-3-yl)-1-oxoisoindolin-2-yl)piperidine-2,6-dione], 73%.

The same assay, now with this note: 10 μM, 24 h, Prolabel assay, 293GT cells.
As to `O=C1CCC(N2Cc3cc(-c4ccc(Cc5ccccc5)nn4)ccc3C2=O)C(=O)N1` (stereo not shown) [Compound I-24, 3-(5-(6-benzylpyridazin-3-yl)-1-oxoisoindolin-2-yl)piperidine-2,6-dione], the “IKZF2 % protein reduction at 10 μM, 24 h” value was 90%.
On the same count and under the same terms, the figure for `O=C1CCC(N2Cc3cc(-c4n[nH]c5ccccc45)ccc3C2=O)C(=O)N1` (stereo not shown) [Compound I-18, 3-(5-(1H-indazol-3-yl)-1-oxoisoindolin-2-yl)piperidine-2,6-dione] is 40%; for `Cc1c[nH]nc1-c1ccc2c(c1)CN(C1CCC(=O)NC1=O)C2=O` (stereo not shown) [Compound I-3, 3-(5-(4-methyl-1H-pyrazol-3-yl)-1-oxoisoindolin-2-yl)piperidine-2,6-dione] it is 50%.
For the compound `Cc1cc(-c2ccc3c(c2)CN(C2CCC(=O)NC2=O)C3=O)nn1Cc1ccc(C#N)cc1` (stereo not shown) [Compound I-5, 4-((3-(2-(2,6-dioxopiperidin-3-yl)-1-oxoisoindolin-5-yl)-5-methyl-1H-pyrazol-1-yl)methyl)benzonitrile], the “IKZF2 % protein reduction at 10 μM, 24 h” value is listed as 35%.
Same read-out and setting: the figure for `O=C1CCC(N2Cc3cc(-c4ccn(Cc5ccccc5)n4)ccc3C2=O)C(=O)N1` (stereo not shown) [Compound I-9, 3-(5-(1-benzyl-1H-pyrazol-3-yl)-1-oxoisoindolin-2-yl)piperidine-2,6-dione] is 20%.
Still for that read-out and setting: with `Cc1cc(-c2ccc3c(c2)CN(C2CCC(=O)NC2=O)C3=O)nn1Cc1ccccc1` (stereo not shown) [Compound I-4, 3-(5-(1-benzyl-5-methyl-1H-pyrazol-3-yl)-1-oxoisoindolin-2-yl)piperidine-2,6-dione] the figure was 50%; with `Cc1cn(Cc2ccccc2)nc1-c1ccc2c(c1)CN(C1CCC(=O)NC1=O)C2=O` (stereo not shown) [Compound I-17, 3-(5-(1-benzyl-4-methyl-1H-pyrazol-3-yl)-1-oxoisoindolin-2-yl)piperidine-2,6-dione], 60%.
Still for that read-out and setting: with `O=C1CCC(N2Cc3cc(-c4cn(Cc5ccccc5)cn4)ccc3C2=O)C(=O)N1` (stereo not shown) [Compound I-1, 3-(5-(1-benzyl-1H-imidazol-4-yl)-1-oxoisoindolin-2-yl)piperidine-2,6-dione] the figure was 0%; with `O=C1CCC(N2Cc3cc(-c4cc[nH]n4)ccc3C2=O)C(=O)N1` (stereo not shown) [Compound I-8, 3-(1-oxo-5-(1H-pyrazol-3-yl)isoindolin-2-yl)piperidine-2,6-dione], 10%; with `O=C1CCC(N2Cc3cc(-c4nn(Cc5ccccc5)c5ccccc45)ccc3C2=O)C(=O)N1` (stereo not shown) [Compound I-19, 3-(5-(1-benzyl-1H-indazol-3-yl)-1-oxoisoindolin-2-yl)piperidine-2,6-dione], 0%.
Consider `CCn1nc(-c2ccc3c(c2)CN(C2CCC(=O)NC2=O)C3=O)c2ccccc21` (stereo not shown) [Compound I-11, 3-(5-(1-ethyl-1H-indazol-3-yl)-1-oxoisoindolin-2-yl)piperidine-2,6-dione], for which the “IKZF2 % protein reduction at 10 μM, 24 h” value worked out at 30%.
On the same count and under the same terms, with `Cc1cc(-c2ccc3c(c2)CN(C2CCC(=O)NC2=O)C3=O)n[nH]1` (stereo not shown) [Compound I-16, 3-(5-(5-methyl-1H-pyrazol-3-yl)-1-oxoisoindolin-2-yl)piperidine-2,6-dione] the figure was 0%; with `CCNc1cnnc(-c2ccc3c(c2)CN(C2CCC(=O)NC2=O)C3=O)c1` (stereo not shown) [Compound I-21, 3-(5-(5-(ethylamino)pyridazin-3-yl)-1-oxoisoindolin-2-yl)piperidine-2,6-dione], 60%; with `O=C1CCC(N2Cc3cc(-c4nn(Cc5ccccc5)c5c4CCCC5)ccc3C2=O)C(=O)N1` (stereo not shown) [Compound I-15, 3-(5-(1-benzyl-4,5,6,7-tetrahydro-1H-indazol-3-yl)-1-oxoisoindolin-2-yl)piperidine-2,6-dione], 50%.

A further assay has as its target IKZF1 (Homo sapiens, UniProt Q13422+Q96SW2). Kind of assay: Prolabel quantification of IKZF1 protein levels in 293GT cells. The format is cell-based. Conditions: Prolabel assay. As to the method: as §1
Lentiviral vectors, based on the Invitrogen pLenti6.2/V5 DEST backbone, were constructed that placed the prolabel tag upstream of IKZF1, IKZF2 or GSPT1 and expressed the fusion protein from a CMV promoter. […]
The levels of prolabel tagged fusion proteins in compound treated cell lines were measured as follows: […]
Day 3, Plates were removed from the incubator and allowed to equilibrate at r.t. for 30 minutes. […] Plates were incubated at r.t. for three hours and luminescence was read using an Envision reader (Perkin Elmer) Data was analyzed and visualized using the Spotfire software package.
As for `Nc1cccc2c1C(=O)N(C1CCC(=O)NC1=O)C2=O` (stereo not shown) [Control, Pomalidomide], the “IKZF1 degradation @ 10 μM” value is given as “(80%”.

The record behind these values is US20230271940A1, “HETEROARYL SUBSTITUTED 3-(1-OXOISOINDOLIN-2-YL)PIPERIDINE-2,6-DIONE DERIVATIVES AND USES THEREOF” (Novartis AG, priority 2020, published 2023).
